The values that follow come from ChEMBL document CHEMBL1154530, “Pyridyl-pyrimidine benzimidazole derivatives as potent, selective, and orally bioavailable inhibitors of Tie-2 kinase” (Bioorg Med Chem Lett, 2009).

Usually IC50 stands for the concentration that gives 50% inhibition. In general, EC50 refers to the concentration that produces a half-maximal response. As usually defined, the clearance is a measure of how efficiently the substance is removed, as volume per time. The term half-life denotes the time needed for the level to fall by half in the phase considered. By bioavailability is commonly meant dose-corrected exposure relative to a reference, in per cent.

The target of data set [1] is T1, Angiopoietin-1 receptor (Homo sapiens, UniProt Q02763). The data set can be described thus: Inhibition of Tie2.
Data set [2] deals with Vascular endothelial growth factor receptor 2 (Homo sapiens, UniProt P35968). Put plainly: Inhibition of KDR.
Data set [3] addresses T1, Angiopoietin-1 receptor. The data set can be described thus: Inhibition of Tie2 autophosphorylation in human Ea.hy926 cells. Type of data set: cell-based.
Data set [4] is described as follows: Inhibition of Aurora kinase in human HeLa cells assessed as induction of >=4N DNA content. Type of data set: cell-based.
Data set [5] can be described thus: Inhibition of JNK.
The target in a further data set is T2, Aurora kinase A (Homo sapiens, UniProt O14965).
T2 sequence (O14965 whole entry): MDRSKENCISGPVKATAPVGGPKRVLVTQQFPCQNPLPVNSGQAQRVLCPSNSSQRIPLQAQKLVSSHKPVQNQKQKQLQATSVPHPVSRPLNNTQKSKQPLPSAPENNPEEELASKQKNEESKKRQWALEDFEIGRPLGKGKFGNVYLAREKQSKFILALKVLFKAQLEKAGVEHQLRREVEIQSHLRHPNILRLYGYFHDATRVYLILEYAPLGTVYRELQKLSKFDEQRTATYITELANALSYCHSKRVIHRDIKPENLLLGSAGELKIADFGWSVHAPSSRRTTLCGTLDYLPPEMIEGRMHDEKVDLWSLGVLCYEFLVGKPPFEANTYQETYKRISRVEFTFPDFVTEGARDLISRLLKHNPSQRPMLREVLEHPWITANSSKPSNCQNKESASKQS
Put plainly: Inhibition of Aurora A.

The next data set concerns the target Aurora kinase B (Homo sapiens, UniProt Q96GD4). The data set can be described thus: Inhibition of Aurora B.
The subject of the next data set is Plasma. Put plainly: Unbound concentration in mouse plasma.
A short description of data set [6]: Volume of distribution at steady state in Sprague-Dawley rat at 0.5 mg/kg, iv. The note with it: in vivo, read-out: Vdss. Type of data set: ADME, organism-based. Set-up: dose 0.5 mg/kg, route intravenous.
Data set [7] deals with Mus musculus. The data set can be described thus: Plasma concentration in mouse at 10 mg/kg, po. Type of data set: ADME, organism-based. The note with it: in vivo. Set-up: dose 10 mg/kg, route oral.
The subject of data set [8] is Mus musculus. The data set can be described thus: Inhibition of human angiopoietin-1-stimulated Tie2 phosphorylation in mouse lung tissue model at >=30 mg/kg, po. Type of data set: functional, organism-based.
The nature of data set [9]: Clearance in Sprague-Dawley rat at 0.5 mg/kg, iv. Type of data set: ADME, organism-based. To be noted: in vivo. Further details: dose 0.5 mg/kg, route intravenous.
For data set [10], the system named is Mus musculus. The data set can be described thus: Inhibition of human angiopoietin-1-stimulated Tie2 phosphorylation in mouse lung tissue model at 10 mg/kg, po. Further details: scale not given: the % may be the effect or the level left. Type of data set: functional.
The test system of data set [11] is Mus musculus. Put plainly: Inhibition of human angiopoietin-1-stimulated Tie2 phosphorylation in po dosed mouse lung tissue model. Type of data set: functional, organism-based.
Data set [12] can be described thus: Protein binding in mouse plasma. Type of data set: ADME, cell-free. The note with it: read-out: PPB (converted).
Data set [13] in a line: Half life in Sprague-Dawley rat at 0.5 mg/kg, iv. Type of data set: ADME, organism-based. Further details: dose 0.5 mg/kg, route intravenous. To be noted: in vivo.
Data set [14] can be described thus: Oral bioavailability in Sprague-Dawley rat at 5 mg/kg. To be noted: in vivo. Type of data set: ADME, organism-based.

Activity calls are given as the source filed them.

Chain of Vascular endothelial growth factor receptor 2 (P35968 whole entry): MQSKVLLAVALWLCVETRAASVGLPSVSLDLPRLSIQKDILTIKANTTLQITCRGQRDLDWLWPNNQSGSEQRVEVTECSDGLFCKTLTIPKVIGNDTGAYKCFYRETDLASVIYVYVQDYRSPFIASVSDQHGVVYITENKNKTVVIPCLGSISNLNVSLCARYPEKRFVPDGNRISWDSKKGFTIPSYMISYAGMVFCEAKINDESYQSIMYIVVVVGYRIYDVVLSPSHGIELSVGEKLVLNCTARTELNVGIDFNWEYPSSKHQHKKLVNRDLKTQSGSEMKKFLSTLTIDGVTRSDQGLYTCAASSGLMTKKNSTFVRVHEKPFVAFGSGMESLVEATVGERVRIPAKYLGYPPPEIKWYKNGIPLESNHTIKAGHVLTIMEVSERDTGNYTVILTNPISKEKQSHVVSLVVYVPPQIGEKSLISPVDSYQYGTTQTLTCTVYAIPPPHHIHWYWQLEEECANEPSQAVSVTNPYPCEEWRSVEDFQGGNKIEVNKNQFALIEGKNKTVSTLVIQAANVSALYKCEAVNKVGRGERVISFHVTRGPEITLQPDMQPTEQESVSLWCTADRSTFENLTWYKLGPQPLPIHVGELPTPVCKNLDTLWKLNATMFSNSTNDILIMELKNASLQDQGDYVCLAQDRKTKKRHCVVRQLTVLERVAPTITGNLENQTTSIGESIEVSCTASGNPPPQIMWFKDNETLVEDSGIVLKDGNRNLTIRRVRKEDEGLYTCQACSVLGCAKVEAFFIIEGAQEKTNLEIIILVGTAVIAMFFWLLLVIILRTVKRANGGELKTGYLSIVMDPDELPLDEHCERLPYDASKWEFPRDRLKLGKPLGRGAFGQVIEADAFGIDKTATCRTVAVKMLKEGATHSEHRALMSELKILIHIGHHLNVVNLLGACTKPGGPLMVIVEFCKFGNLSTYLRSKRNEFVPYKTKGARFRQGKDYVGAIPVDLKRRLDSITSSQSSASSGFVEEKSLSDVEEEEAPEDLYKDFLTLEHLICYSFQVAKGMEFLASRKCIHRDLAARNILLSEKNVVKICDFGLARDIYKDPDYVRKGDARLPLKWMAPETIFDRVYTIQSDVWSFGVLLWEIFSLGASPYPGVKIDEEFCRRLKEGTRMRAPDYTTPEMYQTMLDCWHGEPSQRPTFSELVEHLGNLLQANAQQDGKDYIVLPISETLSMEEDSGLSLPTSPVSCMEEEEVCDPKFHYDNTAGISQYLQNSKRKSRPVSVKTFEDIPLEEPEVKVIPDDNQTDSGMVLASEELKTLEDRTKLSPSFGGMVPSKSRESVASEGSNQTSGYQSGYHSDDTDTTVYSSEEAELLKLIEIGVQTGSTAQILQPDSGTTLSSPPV
T1 sequence (Q02763 whole entry): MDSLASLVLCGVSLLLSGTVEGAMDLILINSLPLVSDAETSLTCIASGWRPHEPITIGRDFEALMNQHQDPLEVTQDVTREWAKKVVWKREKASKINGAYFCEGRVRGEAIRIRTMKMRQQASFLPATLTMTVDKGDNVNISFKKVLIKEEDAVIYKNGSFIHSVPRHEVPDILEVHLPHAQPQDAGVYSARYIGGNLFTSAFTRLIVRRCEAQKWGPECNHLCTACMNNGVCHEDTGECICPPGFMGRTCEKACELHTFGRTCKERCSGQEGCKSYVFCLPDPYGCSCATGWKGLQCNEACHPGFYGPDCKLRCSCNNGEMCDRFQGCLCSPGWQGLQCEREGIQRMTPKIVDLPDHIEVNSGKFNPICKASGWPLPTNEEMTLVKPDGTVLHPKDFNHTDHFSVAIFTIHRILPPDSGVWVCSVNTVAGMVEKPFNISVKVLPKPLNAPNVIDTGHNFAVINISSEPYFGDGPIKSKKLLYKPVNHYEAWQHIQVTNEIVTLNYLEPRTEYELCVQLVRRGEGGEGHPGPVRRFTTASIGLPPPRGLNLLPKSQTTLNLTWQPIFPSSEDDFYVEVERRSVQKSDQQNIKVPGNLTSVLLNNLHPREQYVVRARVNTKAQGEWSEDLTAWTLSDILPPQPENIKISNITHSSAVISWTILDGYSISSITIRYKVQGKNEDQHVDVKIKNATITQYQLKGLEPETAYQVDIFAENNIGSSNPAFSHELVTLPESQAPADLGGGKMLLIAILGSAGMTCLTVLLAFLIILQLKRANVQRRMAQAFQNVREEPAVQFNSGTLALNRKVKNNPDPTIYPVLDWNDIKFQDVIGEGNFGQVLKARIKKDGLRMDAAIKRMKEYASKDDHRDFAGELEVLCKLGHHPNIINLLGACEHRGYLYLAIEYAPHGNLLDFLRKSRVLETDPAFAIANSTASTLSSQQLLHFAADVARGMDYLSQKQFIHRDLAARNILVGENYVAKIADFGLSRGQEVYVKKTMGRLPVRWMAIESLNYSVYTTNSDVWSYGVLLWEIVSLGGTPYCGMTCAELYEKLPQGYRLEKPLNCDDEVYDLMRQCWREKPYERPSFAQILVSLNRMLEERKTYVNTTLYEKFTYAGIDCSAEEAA
Chain of Aurora kinase B (Q96GD4 whole entry): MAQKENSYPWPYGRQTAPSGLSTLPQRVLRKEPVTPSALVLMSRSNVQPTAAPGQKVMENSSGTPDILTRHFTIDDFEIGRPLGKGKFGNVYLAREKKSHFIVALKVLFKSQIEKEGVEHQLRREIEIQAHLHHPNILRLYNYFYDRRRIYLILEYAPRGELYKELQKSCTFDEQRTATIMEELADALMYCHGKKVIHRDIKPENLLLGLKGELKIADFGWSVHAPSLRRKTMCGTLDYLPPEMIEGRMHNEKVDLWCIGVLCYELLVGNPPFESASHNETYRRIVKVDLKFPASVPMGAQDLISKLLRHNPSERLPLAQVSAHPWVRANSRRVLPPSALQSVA

`CNc1nccc(-c2cccnc2Oc2ccc(Nc3nc4ccccc4s3)c3ccccc23)n1`: the IC50 worked out at 44 nM at Angiopoietin-1 receptor [1] and 88 nM in [2].
On the same counts, the results for `CNc1nccc(-c2cccnc2Oc2ccc(Nc3nc4cc(C(F)(F)F)ccc4[nH]3)c3ccccc23)n1` are 27 nM and 69 nM.
Consider `CNc1nccc(-c2cccnc2Oc2ccc(Nc3nc4ccccc4[nH]3)cc2C)n1`, for which the IC50 on Angiopoietin-1 receptor [1] is 23 nM; against Angiopoietin-1 receptor [3] it was 250 nM; in data set [2] it was > 25000 nM.
Consider `CNc1nccc(-c2cccnc2Oc2ccc(Nc3nc4c(C)cccc4[nH]3)c3ccccc23)n1`, for which the IC50 against Angiopoietin-1 receptor [1] came to 110 nM; in data set [2] it was 1570 nM.
Taken in the same sequence, the figures for `CNc1nccc(-c2cccnc2Oc2ccc(NC(=O)Nc3ccccc3)c3ccccc23)n1` were 5 nM and 40 nM.
Turning to `CNc1nccc(-c2cccnc2Oc2ccc(Nc3nc4ccccc4[nH]3)c3ccccc23)n1`, the IC50 in data set [4] stood at 120 nM; against Angiopoietin-1 receptor [1], 1 nM; against Aurora kinase A it was 19 nM; against Angiopoietin-1 receptor [3], 20 nM; in data set [2], 1400 nM; against Aurora kinase B, 10 nM. Also, in [5], the EC50 is < 100 nM.
Take `CNc1nccc(-c2cccnc2Oc2ccc(Nc3nc4ccccc4[nH]3)c(C)c2C)n1`: the IC50 is 310 nM against Angiopoietin-1 receptor [1] and > 25000 nM in data set [2].
In the case of `CNc1nccc(-c2cccnc2Oc2c(C)cc(Nc3nc4ccccc4[nH]3)c3ccccc23)n1`, the IC50 in data set [4] is > 1200 nM; against Aurora kinase A, 28 nM; in data set [2] it was > 5000 nM; against Aurora kinase B, 80 nM. Moreover, in the data set on Plasma, the unbound plasma concentration came out at 1 nM. Moreover, the Vd in data set [6] was 5.9 L/kg. This compound yielded a concentration in the data set with Mus musculus [7] of 260 nM. The outcome in the data set on Mus musculus [8] was Active. In data set [9], this compound showed a clearance of 28 mL/min/kg. Also, the results for the Activity in the data set with Mus musculus [10] and with Mus musculus [11] were 50% and “Dose-dependent effect”, respectively. Besides, the fraction unbound in data set [12] is 0.004. The same compound gave a half-life in data set [13] of 222 min. In data set [14], the bioavailability is 26%.
In the case of `CNc1nccc(-c2cccnc2Oc2ccc(NC(=O)Nc3ccccc3)cc2C)n1`, the IC50 amounted to 460 nM against Angiopoietin-1 receptor [1] and 7600 nM in data set [2].
For `CNc1nccc(-c2cccnc2Oc2ccc(Nc3nc4ccc(C(F)(F)F)cc4[nH]3)cc2C)n1`, the IC50 against Angiopoietin-1 receptor [1] was determined as 470 nM; in data set [2], 6000 nM.
In the case of `CNc1nccc(-c2cccnc2Oc2ccc(Nc3nc4ccccc4o3)c3ccccc23)n1`, the IC50 came out at 16 nM on Angiopoietin-1 receptor [1] and 30 nM in [2].
`CNc1nccc(-c2cccnc2Oc2ccc(NC(=O)Nc3cccc(C(F)(F)F)c3)cc2C)n1` yielded an IC50 in [2] of 34 nM.
Regarding `CNc1nccc(-c2cccnc2Oc2ccc(Nc3nc4ccccc4[nH]3)c(C)c2)n1`, the IC50 is 590 nM against Angiopoietin-1 receptor [1] and > 25000 nM in data set [2].
For `CNc1nccc(-c2cccnc2Oc2ccc(Nc3nc4ccccc4n3C)c3ccccc23)n1`, the IC50 is 240 nM at Angiopoietin-1 receptor [1] and 250 nM in [2].
On the same counts, the results for `CNc1nccc(-c2cccnc2Oc2ccc(Nc3nc4ccccc4[nH]3)cc2)n1` are 250 nM and > 25000 nM.
